Holding throughout (format): in vivo
Assay [1] has as its system chickweed (Stellaria media). Kind of assay: Postemergence herbicidal activity, chickweed. To be noted: foliar spray, visual after 2 weeks, 0 no injury, 100 complete kill. How it is done: (§1) Seeds of the desired test plant species were planted in Grace-Sierra MetroMix® 306 planting mixture, which typically has a pH of 6.0 to 6.8 and an organic matter content of about 30 percent, in plastic pots with a surface area of 64 square centimeters. When required to ensure good germination and healthy plants, a fungicide treatment and/or other chemical or physical treatment was applied. The plants were grown for 7-21 days in a greenhouse with an approximately 15 hr photoperiod which was maintained at about 23-29° C. during the day and 22-28° C. during the night. Nutrients and water were added on a regular basis and supplemental lighting was provided with overhead metal halide 1000 Watt lamps as necessary. The plants were employed for testing when they reached the first or second true leaf stage. A weighed amount of each test compound, determined by the highest rate to be tested, was placed in a 20 mL glass vial and was dissolved in 4 mL of a 97:3 v/v (volume/volume) mixture of acetone and dimethyl sulfoxide to obtain concentrated stock solutions. […] The concentrated stock solutions obtained were diluted with an aqueous mixture containing acetone, water, iso-propyl alcohol, dimethyl sulfoxide, Atplus 411F crop oil concentrate, and Triton X-155 surfactant (methylenebisdiamyl phenoxy polyethoxy ethanol) in a 48.5:39:10:1.5:1.0:0.02 v/v ratio to obtain spray solutions of known concentration. The solutions containing the highest concentration to be tested were prepared by diluting 2 mL aliquots of the stock solution with 13 mL of the mixture and lower concentrations were prepared by dilution of appropriate smaller portions of the stock solution. Approximately 1.5 mL aliquots of each solution of known concentration were sprayed evenly onto each of the test plant pots using a DeVilbiss atomizer driven by compressed air pressure of 2 to 4 psi (140 to 280 kilopascals) to obtain thorough coverage of each plant. Control plants were sprayed in the same manner with the aqueous mixture. In this test an application rate of 1 ppm results in the application of approximately 1 g/ha. The treated plants and control plants were placed in a greenhouse as described above and watered by sub-irrigation to prevent wash-off of the test compounds. After 2 weeks the condition of the test plants as compared with that of the untreated plants was determined visually and scored on a scale of 0 to 100 percent where 0 corresponds to no injury and 100 corresponds to complete kill.

Assay [2] relates to cocklebur (Xanthium strumarium). Kind of assay: Postemergence herbicidal activity, cocklebur. To be noted: foliar spray, visual after 2 weeks, 0 no injury, 100 complete kill. How it is done:
as §1

For assay [3], the system named is lambsquarters (Chenopodium album). The assay can be described thus: Postemergence herbicidal activity, lambsquarters. To be noted: foliar spray, visual after 2 weeks, 0 no injury, 100 complete kill. How it is done:
as §1

In assay [4] the test system is morningglory (Ipomoea hederacea). Kind of assay: Postemergence herbicidal activity, morningglory. To be noted: foliar spray, visual after 2 weeks, 0 no injury, 100 complete kill. How it is done:
as §1

Assay [5] deals with pigweed (Amaranthus retroflexus). Kind of assay: Postemergence herbicidal activity, pigweed. To be noted: foliar spray, visual after 2 weeks, 0 no injury, 100 complete kill. How it is done:
as §1

In assay [6] the test system is velvetleaf (Abutilion theophrasti). Kind of assay: Postemergence herbicidal activity, velvetleaf. To be noted: foliar spray, visual after 2 weeks, 0 no injury, 100 complete kill. How it is done:
as §1

Assay [7] relates to viola (Viola tricolor). The assay can be described thus: Postemergence herbicidal activity, viola. To be noted: foliar spray, visual after 2 weeks, 0 no injury, 100 complete kill. How it is done:
as §1

Assay [8] relates to wild buckwheat (Polygonum convolvulus). The assay can be described thus: Postemergence herbicidal activity, wild buckwheat. To be noted: foliar spray, visual after 2 weeks, 0 no injury, 100 complete kill. How it is done: as §1
In assay [9] the test system is blackgrass (Alopecurus myosuroides). Kind of assay: Postemergence herbicidal activity, blackgrass. To be noted: foliar spray, visual after 2 weeks, 0 no injury, 100 complete kill. How it is done:
as §1

Assay [10] has as its system giant foxtail (Setaria faberi). Kind of assay: Postemergence herbicidal activity, giant foxtail. Particulars: foliar spray, visual after 2 weeks, 0 no injury, 100 complete kill. How it is done:
as §1

In assay [11] the test system is Rox orange sorghum (Sorghum bicolor). Kind of assay: Postemergence herbicidal activity, Rox orange sorghum. To be noted: foliar spray, visual after 2 weeks, 0 no injury, 100 complete kill. How it is done: as §1
In assay [12] the test system is wild oats (Avena fatua). The assay can be described thus: Postemergence herbicidal activity, wild oats. To be noted: foliar spray, visual after 2 weeks, 0 no injury, 100 complete kill. How it is done:
as §1

Assay [13] deals with lambsquarters (Chenopodium album). Kind of assay: Preemergence herbicidal activity, lambsquarters. To be noted: 8.8 g/Ha, soil spray, visual after 3 weeks; 0 no injury, 100 complete kill or no germination. How it is done:
(§2) The soil matrix was contained in plastic pots with a surface area of 161 square centimeters. When required to ensure good germination and healthy plants, a fungicide treatment and/or other chemical or physical treatment was applied. A weighed amount, determined by the highest rate to be tested, of each test compound was placed in a 20 mL glass vial and was dissolved in 8 mL of a 97:3 v/v (volume/volume) mixture of acetone and dimethyl sulfoxide to obtain concentrated stock solutions. […] The stock solutions obtained were diluted with a 99.9:0.1 mixture of water and Tween® 155 surfactant (ethoxylated sorbitan fatty acid ester) to obtain application solutions of known concentration. The solutions containing the highest concentration to be tested were prepared by diluting 4 mL aliquots of the stock solution with 8.5 mL of the mixture and lower concentrations were prepared by dilution of appropriate smaller portions of the stock solution. A 2.5 mL aliquot of each solution of known concentration was sprayed evenly onto the soil of each seeded pot using a Cornwall 5.0 mL glass syringe fitted with a TeeJet TN-3 hollow cone nozzle to obtain thorough coverage of the soil in each pot. Control pots were sprayed in the same manner with the aqueous mixture. A highest application rate of 4.48 kg/ha is achieved when 50 mg of test compound is employed. The treated pots and control pots were placed in a greenhouse with an approximately 15 hr photoperiod which was maintained at about 23-29° C. during the day and 22-28° C. during the night. Nutrients and water were added on a regular basis and supplemental lighting was provided with overhead metal halide 1000 Watt lamps as necessary. The water was added by top-irrigation. After 3 weeks the condition of the test plants that germinated and grew as compared with that of the untreated plants that germinated and grew was determined visually and scored on a scale of 0 to 100 percent where 0 corresponds to no injury and 100 corresponds to complete kill or no germination.

For assay [14], the system named is morningglory (Ipomoea hederacea). Kind of assay: Preemergence herbicidal activity, morningglory. To be noted: 8.8 g/Ha, soil spray, visual after 3 weeks; 0 no injury, 100 complete kill or no germination. How it is done:
as §2

For assay [15], the system named is pigweed (Amaranthus retroflexus). The assay can be described thus: Preemergence herbicidal activity, pigweed. To be noted: 8.8 g/Ha, soil spray, visual after 3 weeks; 0 no injury, 100 complete kill or no germination. How it is done:
as §2

Assay [16] has as its system velvetleaf (Abutilion theophrasti). The assay can be described thus: Preemergence herbicidal activity, velvetleaf. To be noted: 8.8 g/Ha, soil spray, visual after 3 weeks; 0 no injury, 100 complete kill or no germination. How it is done: as §2
The subject of assay [17] is wild poinsettia (Euphorbia heterophylla). The assay can be described thus: Preemergence herbicidal activity, wild poinsettia. Particulars: 8.8 g/Ha, soil spray, visual after 3 weeks; 0 no injury, 100 complete kill or no germination. How it is done:
as §2

Assay [18] relates to blackgrass (Alopecurus myosuroides). The assay can be described thus: Preemergence herbicidal activity, blackgrass. Particulars: 8.8 g/Ha, soil spray, visual after 3 weeks; 0 no injury, 100 complete kill or no germination. How it is done: as §2
In assay [19] the test system is barnyardgrass (Echinochloa crus-galli). Kind of assay: Preemergence herbicidal activity, barnyardgrass. Particulars: 8.8 g/Ha, soil spray, visual after 3 weeks; 0 no injury, 100 complete kill or no germination. How it is done:
as §2

In assay [20] the test system is crabgrass (Digitaria sanguinalis). The assay can be described thus: Preemergence herbicidal activity, crabgrass. To be noted: 8.8 g/Ha, soil spray, visual after 3 weeks; 0 no injury, 100 complete kill or no germination. How it is done:
as §2

In assay [21] the test system is giant foxtail (Setaria faberi). The assay can be described thus: Preemergence herbicidal activity, giant foxtail. Particulars: 8.8 g/Ha, soil spray, visual after 3 weeks; 0 no injury, 100 complete kill or no germination. How it is done: as §2
Assay [22] relates to Rox orange sorghum (Sorghum bicolor). Kind of assay: Preemergence herbicidal activity, Rox orange sorghum. To be noted: 8.8 g/Ha, soil spray, visual after 3 weeks; 0 no injury, 100 complete kill or no germination. How it is done:
as §2

Assay [23] relates to wild oats (Avena fatua). The assay can be described thus: Preemergence herbicidal activity, wild oats. To be noted: 8.8 g/Ha, soil spray, visual after 3 weeks; 0 no injury, 100 complete kill or no germination. How it is done: as §2

SMILES strings stand for the structures.

On to `COc1csc(C(F)(F)F)c1S(=O)(=O)Nc1nc2c(OC)cnc(OC)n2n1` [Compound 10], for which the “STEME postemergence injury score 0-100” value in assay [1] (15.6 ppm) stood at 98%. Also, in [2] (15.6 ppm), the “XANST postemergence injury score 0-100” value was found to be 100%. In addition, the “CHEAL postemergence injury score 0-100” value in [3] (15.6 ppm) came out at 70%. Moreover, in assay [4] (15.6 ppm), the “IPOHE postemergence injury score 0-100” value amounted to 80%. Also, the “AMARE postemergence injury score 0-100” value in assay [5] (15.6 ppm) was 95%. For the same molecule, the “ABUTH postemergence injury score 0-100” value in [6] (15.6 ppm) is recorded as 90%. Also, the “VIOTR postemergence injury score 0-100” value in [7] (15.6 ppm) is given as 90%. Also, the “POLCO postemergence injury score 0-100” value in [8] (15.6 ppm) worked out at 70%. In assay [9] (15.6 ppm), the “ALOMY postemergence injury score 0-100” value is given as 50%. The “SETFA postemergence injury score 0-100” value in [10] (15.6 ppm) was 90%. Also, in assay [11] (15.6 ppm), the “SORBI postemergence injury score 0-100” value stood at 80%. Further, the “AVEFA postemergence injury score 0-100” value in [12] (15.6 ppm) turned out to be 80%. In assay [13], the “CHEAL preemergence injury score 0-100” value was found to be 95%. Besides, the “IPOHE preemergence injury score 0-100” value in assay [14] stood at 80%. For the same molecule, in [15], the “AMARE preemergence injury score 0-100” value amounted to 100%. Further, the “ABUTH preemergence injury score 0-100” value in assay [16] was found to be 70%. Further, in assay [17], the “EPHHL preemergence injury score 0-100” value worked out at 75%. Moreover, the “ALOMY preemergence injury score 0-100” value in [18] turned out to be 90%. Moreover, the “ECHCG preemergence injury score 0-100” value in assay [19] turned out to be 90%. Besides, the “DIGSA preemergence injury score 0-100” value in [20] is listed as 70%. Moreover, in [21], the “SETFA preemergence injury score 0-100” value was 90%. Also, the “SORBI preemergence injury score 0-100” value in assay [22] was 100%. Besides, the “AVEFA preemergence injury score 0-100” value in [23] was determined as 90%.
In the case of `COc1ccsc1S(=O)(=O)Nc1nc2c(Cl)cnc(OC)n2n1` [Compound 2], the “STEME postemergence injury score 0-100” value in assay [1] (7.8 ppm) stood at 98%. In addition, the “XANST postemergence injury score 0-100” value in assay [2] (7.8 ppm) stood at 60%. Also, in [3] (7.8 ppm), the “CHEAL postemergence injury score 0-100” value is 90%. Moreover, the “IPOHE postemergence injury score 0-100” value in assay [4] (7.8 ppm) was found to be 85%. In addition, in assay [5] (7.8 ppm), the “AMARE postemergence injury score 0-100” value is on record as 98%. Besides, the “ABUTH postemergence injury score 0-100” value in assay [6] (7.8 ppm) was 95%. Besides, the “VIOTR postemergence injury score 0-100” value in [7] (7.8 ppm) is given as 95%. The “POLCO postemergence injury score 0-100” value in assay [8] (7.8 ppm) is given as 90%. For the same molecule, the “ALOMY postemergence injury score 0-100” value in assay [9] (7.8 ppm) turned out to be 70%. Further, the “SETFA postemergence injury score 0-100” value in assay [10] (7.8 ppm) came to 98%. Further, the “SORBI postemergence injury score 0-100” value in [11] (7.8 ppm) stood at 98%. In addition, the “AVEFA postemergence injury score 0-100” value in assay [12] (7.8 ppm) is given as 90%. The “CHEAL preemergence injury score 0-100” value in [13] was 98%. In addition, the “IPOHE preemergence injury score 0-100” value in [14] is listed as 80%. Besides, the “AMARE preemergence injury score 0-100” value in [15] is 95%. For the same molecule, the “ABUTH preemergence injury score 0-100” value in [16] worked out at 75%. The “EPHHL preemergence injury score 0-100” value in assay [17] amounted to 90%. Also, in [18], the “ALOMY preemergence injury score 0-100” value is recorded as 95%. Besides, the “ECHCG preemergence injury score 0-100” value in assay [19] is given as 75%. Also, the “DIGSA preemergence injury score 0-100” value in [20] is 100%. Besides, the “SETFA preemergence injury score 0-100” value in assay [21] was 100%. Further, the “SORBI preemergence injury score 0-100” value in assay [22] was 100%. Besides, the “AVEFA preemergence injury score 0-100” value in [23] came to 100%.

These data come from US6645918B1, “N-([1,2,4]triazoloazinyl)thiophenesulfonamide compounds and their use as herbicides” (Dow AgroSciences LLC, priority 2000, dated 2003).
